The test system of assay [1] is in vitro generated β cells. Description: Glucose stimulated insulin secretion (GSIS) of stage 6 cells. It is filed as cell-based, human. As for the experimental part: Differentiated cells were washed twice in Krebs buffer (Krb) containing 2.8mM glucose, and then distributed into 24-well plates containing Millicell Cell culture inserts for easy transfer between conditions. Each well received 0.5 ml buffer with approximately 10^6 cells. After fasting in 2.8 mM glucose for 1 hour in 37° C., the analysis of the cells' response to changing glucose levels was performed by a series of 1 hour incubations in 37° C., in the following order: 1) 2.8 mM (low) glucose. 2) 20 mM (high) glucose. 3) brief wash in 2.8 mM glucose. 4) 1 hour incubation in 2.8 mM glucose. 5) 20 mM glucose. 6) 2.8 mM glucose with 30 mM KCL. At the end of each step (excluding the wash), the incubation buffer was collected and the amount of insulin secreted during the hour's incubation was determined using human insulin ELISA kit (ALPCO diagnostics; 80-INSHUU-E01.1). Clusters were then dispersed into single cells using TrypLE Express (Life Technologies), and cell number was counted automatically by a Vi-Cell (Beckman Coulter).

In assay [2] the test system is differentiating hESC clusters. The assay can be described thus: Nanostring mRNA expression of endocrine, hormone and progenitor markers in differentiating clusters. The class given is cell-based, human. To be noted: treatment during both stages 4 and 5; relative to control. As for the experimental part: (§1) Factors were tested in either 6-well plates placed on a rocker, or in Biott ABLE Bioreactors (Stemgent). IWR1-endo (Sigma-Aldrich) was used at 5 μM. XAV939 (Santa Cruz, SC-296704A) was used at 5 μM. Recombinant human BMP2/BMP7 (Thermo-Fisher) was used at […]. when added during stage 4, CHIR99021 was used at a concentration of […].
Cells were collected for RNA extraction in RLT Lysis Buffer (Qiagen) and frozen at −80° C. RNA was extracted using the RNeasy Mini Kit (Qiagen), according the manufacturer's instructions—including DNA digestion, and 100 ng of RNA was used for each reaction. Nanostring set up was performed according to the protocol for the nCounter XT Gene Expression Assay. Data was analyzed in the nSolver 2.5 Software. All genes were normalized to housekeeping genes (ITCH, RPL15, RPL19, TCEB1, UBE2D3). Analysis of changes in gene expression of markers for endocrine and progenitor cells was done using R.

Assay [3] relates to HUES8 human embryonic stem cells. The assay can be described thus: Flow cytometry of cell proportions during directed differentiation of hESCs into β cells. It is filed as cell-based. As for the experimental part: (§2) HUES8 ([…]) human embryonic stem cells and human induced pluripotent stem cells (hiPSCs) from line 1016 (person) were obtained from the Human Embryonic Stem Cell Facility and iPS Core Facility of the Harvard Stem Cell Institute. Cells were differentiated into beta like cells in suspension as described previously^37. Briefly, 150Xe^6 cells were suspended in 300 ml of supplemented mTeSR1 and grown in spinning flasks (70 rpm, 37° C., 5% CO2) for 48 hours prior to the beginning of a stepwise differentiation protocol:
Stage 4—5 days in S3 medium supplemented with KGF (50 ng/ml), Sant1 (0.25 μM) and retinoic acid (0.1 μM).
Stage 5—7 days in BE5 medium supplemented with Beta Cellulin (20 ng/ml). XXI (1 μM), Alk5ill(10 μM) and T3 (1 μM). Sant1 (0.25 μM) was added in the first three days, and retinoic acid was added at 0.1 μM in the first three days, then at 0.025 μM.
Stage 6—CMRLS medium supplemented with Alk5iII (10 μM) and T3 (1 μM).
In many of the experiments following cell collection for sc-RNAseq, the protocol was slightly modified to add Y-27632 (10 μM) at stage 3-5, and ActivinA (5 ng/ml) in stage 4. In some cases, an extra day at stage 4 was also added. For the presented functional and flow cytometry analysis in stage 6, CMRLS based media was replaced with S3 medium, without supplements.
as §1
Differentiated cell clusters were dispersed into single-cell suspension by incubation in TrypLE Express at 37° C., quenched with PBS+2% FBS, fixed with 4% PFA for 30 min at 4° C., washed once in PBS, and resuspended in PBS+2% FBS. Staining was done in 96-well plates. Cells were incubated in blocking buffer (PBS+0.1% Triton X-100+5% donkey serum) at 4° C. for 30-60 min. Cells were then re-suspended in blocking buffer with primary antibodies and incubated at room temperature for 1 hour or at 4° C. overnight. Cells were washed twice in blocking buffer and incubated in blocking buffer with secondary antibodies at 4° C. for 1 hour. Cells were then washed three times in PBS+5% Donkey serum and analyzed using either the BD Accuri c6 flow cytometer or the LSR-II flow cytometer (BD Biosciences). Analysis of the results was performed using FlowJo software.
(Flow cytometry measures light scatter and fluorescence of single cells or particles in a stream.)

For assay [4], the system named is human induced pluripotent stem cells (hiPSCs) from line 1016. Description: Flow cytometry of cell proportions during directed differentiation of hiPSC-1016. It is filed as cell-based. To be noted: stage 5. As for the experimental part: as §2, §1
Differentiated cell clusters were dispersed into single-cell suspension by incubation in TrypLE Express at 37° C., quenched with PBS+2% FBS, fixed with 4% PFA for 30 min at 4° C., washed once in PBS, and resuspended in PBS+2% FBS. Staining was done in 96-well plates. Cells were incubated in blocking buffer (PBS+0.1% Triton X-100+5% donkey serum) at 4° C. for 30-60 min. […] Cells were then washed three times in PBS+5% Donkey serum and analyzed using either the BD Accuri c6 flow cytometer or the LSR-II flow cytometer (BD Biosciences). […]

Assay [5] concerns differentiating hESC clusters. The assay can be described thus: Cell concentration in differentiation batches during stage 6. The note with it: treatment during stage 5, vs control. The class given is cell-based, human. The procedure: The relative changes in gene expression relative to control conditions are presented in log values, for two independent experiments. FIG. 9E provides cell concentration in the differentiation batches analyzed in FIG. 4H. […] Bars show the average±S.E. n, from left to right: 8 (7 for IWR), 6, 8, 7, 6. […] The bars show geometric mean±S.E. of the fold change in insulin secretion following the transition from low (2.8 mM) to high (20 mM) glucose levels. FIG. 9F provides fold change in insulin secretion after one stimulation with high glucose. From left to right: n=5,6,6,3; 2-way ANOVA on log(Fold insulin secretion): p-value=0.83 and 0.16 for differences caused by the treatment or the day of analysis, respectively. […]
Differentiated cells were washed twice in Krebs buffer (Krb) containing 2.8mM glucose, and then distributed into 24-well plates containing Millicell Cell culture inserts for easy transfer between conditions. […] At the end of each step (excluding the wash), the incubation buffer was collected and the amount of insulin secreted during the hour's incubation was determined using human insulin ELISA kit (ALPCO diagnostics; 80-INSHUU-E01.1). Clusters were then dispersed into single cells using TrypLE Express (Life Technologies), and cell number was counted automatically by a Vi-Cell (Beckman Coulter).

Assay [6] concerns differentiating hESC clusters. The note with it: Activin A and Y-27632 given together during stage 4; cited from earlier work.
[7] abbreviates: factor added during stage 4, flow cytometry at end of stage 4, vs control.
The mark [8] stands for this setting: XXI removed from the media during stage 5, flow cytometry at end of stage 5, vs control with XXI.

As for `O=C(Nc1cccc2cccnc12)c1ccc(N2C(=O)[C@@H]3[C@H](C2=O)[C@@H]2C=C[C@H]3C2)cc1` [IWR1-endo], the “insulin secretion in response to high glucose levels (first stimulation)” value in assay [1] (treatment during stage 5, 2.8 mM to 20 mM glucose) is “maintain their ability to secrete insulin”. Also, the “insulin release on second stimulation with high glucose, compared to controls” value in assay [1] (treatment during stage 5, consecutive stimulations, 20 mM glucose) is on record as “release less insulin in the second challenge”. Further, in assay [2], the “expression of endocrine markers” value is recorded as “increased expression” and the “expression of progenitor markers” value is reported as “downregulated”. Also, in assay [3] (setting [7]), the “number / proportion of CHGA+ endocrine cells” value was “significantly raised” and the “number / proportion of PDX1+/NKX6.1+ progenitors” value is reported as “reduced”. Also, the “overall yield of in vitro generated β cells” value in assay [3] (treatment during stage 5, concluded from β cell proportion and cell numbers) was “increases”. The “increase in proportion of C-PEP+/NKX6.1+ β cells, on average, relative to controls” value in assay [3] (treatment during stage 5, flow cytometry at end of stage 5) is on record as “more than 50%”. The “proportion of CHGA+ endocrine cells” value in assay [3] (treatment during stage 5, flow cytometry at end of stage 5, compared with the stage 4 effect) is “even higher relative increase”. For the same molecule, in assay [4], the “proportion of hiPSC-1016 derived CHGA+ cells” value is listed as “increases”. For the same molecule, the “overall cell numbers / cell concentration during stage 6” value in assay [5] is “slightly increased”. The “overall cell numbers / cell concentration during stage 6” value in assay [5] (listed as IWR) is reported as “slightly higher”.

Take `C[C@@H](N)[C@H]1CC[C@H](C(=O)Nc2ccncc2)CC1` [Y-27632]: in assay [6], the “appearance of buds on the clusters' surface” value was “induces”.

With `C[C@H](NC(=O)Cc1cc(F)cc(F)c1)C(=O)N[C@H]1N=C(c2ccccc2)c2ccccc2N(C)C1=O` [XXI], in assay [3] (setting [8]), the “number of CPEP+NKX6.1+ β cells” value is “dramatically reduced” and the “number of GLP2+ α cells” value is on record as “did not significantly affect”.

Regarding `Cc1c[nH]c(-c2cnc(NCCNc3ccc(C#N)cn3)nc2-c2ccc(Cl)cc2Cl)n1` [CHIR99021], the “number / proportion of CHGA+ endocrine cells” value in assay [3] (setting [7]) is “decreased”.

B1: Activin A: protein factor (R&D Systems) added to differentiation media (protein, UniProt P08476 311-426, looked up)
Inhibin beta A chain: GLECDGKVNICCKKQFFVSFKDIGWNDWIIAPSGYHANYCEGECPSHIAGTSGSSLSFHSTVINHYRMRGHSPFANLKSCCVPTKLRPMSMLYYDDGQNIIKKDIQNMIVEECGCS
modifications: Inhibin beta A chain
notes: protein factor (R&D Systems) added to differentiation media
As for B1, in assay [6], the “appearance of buds on the clusters' surface” value is “induces”.
